ChEMBL document CHEMBL1152333 (J Nat Prod, 2009)
pIC50: −log10 of the molar value. Activity calls are given as the source filed them. The rule behind the calls is not given here.

Key:
N2a [1] = experiment: Steady state inactivation of Kv potassium channel in -70 mV-activated mouse N2A cells followed by further 10 mV pulse stimulation assessed as reduction in half maximal activation potential at 30 uM (RVb= 10.8 +/- 2.4 mV); type: cell-based
N2a [2] = experiment: Steady state inactivation of Kv potassium channel in -70 mV-activated mouse N2A cells followed by further 10 mV pulse stimulation assessed as activation slope factor at 30 uM applied intracellularly; type: cell-based
N2a [3] = experiment: Inhibition of Kv potassium channel in +10 to +70 mV-stimulated mouse N2A cells at 30 uM; type: cell-based
N2a [4] = experiment: Inactivation of Kv channel in +30 mV-stimulated mouse N2A cells assessed as decay time constant of inactivated K+ current at 30 uM via bath application measured after 3 mins (Rvb=1567 +/- 104 ms); type: cell-based
Mus musculus [5] = organism: Mus musculus; experiment: Inhibition of Kv potassium channel in mouse N2A assessed as blockade of channel pore at 10 uM in presence of 140 mM intracellular potassium ion; type: cell-based
N2a [6] = experiment: Inhibition of Kv potassium channel in +10 to +70 mV-stimulated mouse N2A cells at 10 uM; type: cell-based
N2a [7] = experiment: Inactivation of Kv channel in +30 mV-stimulated mouse N2A cells assessed as […] at 30 uM applied extracellularly measured after compound washout (Rvb=1970 +/- 101 ms); type: cell-based
[8] = biological target: Potassium voltage-gated channel subfamily A member 2 (Homo sapiens) (UniProt P16389); experiment: Inhibition of Kv1.2 channel expressed in -70 mV-activated HEK293 cells followed by further 10 mV pulse stimulation assessed as slope factor (RVb= 16.3 +/- 1.8 no_unit); type: cell-based
N2a [9] = experiment: Inactivation of Kv channel in +30 mV-stimulated mouse N2A cells assessed as decay time constant of inactivated K+ current at 30 uM applied extracellularly measured after compound washout (Rvb=1970 +/- 101 ms); type: cell-based
N2a [10] = experiment: Inhibition of Kv potassium channel-induced current in mouse N2A cells assessed as left shift of activation curve; type: cell-based
N2a [11] = experiment: Inactivation of open state of Kv channel in depolarized mouse N2A cells assessed as change in +30 mV-stimulated peak current at 30 uM treated 4 mins before voltage stimulation relative to control; type: cell-based
N2a [12] = experiment: Steady state inactivation of Kv potassium channel in -70 mV-activated mouse N2A cells followed by further 10 mV pulse stimulation assessed as change in slope factor potential at 30 uM (RVb= 16.1 +/- 1.1 no_unit); type: cell-based
N2a [13] = experiment: Inactivation of Kv channel in +30 mV-stimulated mouse N2A cells assessed as decay time constant of inactivated K+ current at 30 uM applied extracellularly (Rvb=1970 +/- 101 ms); type: cell-based
N2a [14] = experiment: Inactivation of open state of Kv channels in depolarized mouse N2A cells assessed as reduction of +30 mV-stimulated peak current magnitude at 30 uM treated 4 mins before voltage stimulation followed by restimulation with +30 mV pulse every 20 seconds measured after 6 mins relative to control; type: cell-based; design: scale not given: the % may be the effect or the level left
Mus musculus [15] = organism: Mus musculus; experiment: Inhibition of Kv potassium channel in mouse N2A assessed as blockade of channel pore at 30 uM in presence of 70 mM intracellular potassium ion; type: cell-based
N2a [16] = experiment: Steady state inactivation of Kv potassium channel in 10 second long prepulse-activated mouse N2A cells followed by further +70 mV pulse stimulation assessed as reduction in half maximal activation potential at 30 uM (RVb=20.9 +/- 2.1 mV); type: cell-based
N2a [17] = experiment: Steady state inactivation of Kv potassium channel in 10 sec long prepulse-activated mouse N2A cells followed by further +70 mV pulse stimulation assessed as change in slope factor potential at 30 uM (Rvb=6.4 +/- 1.1 no_unit); type: cell-based
N2a [18] = experiment: Inactivation of open state of Kv channel in +30 mV-stimulated mouse N2A cells assessed as peak K+ current recovery at 30 uM treated 4 mins before voltage stimulation followed by restimulation with +30 mV pulse every 20 seconds measured after compound washout; type: cell-based
N2a [19] = experiment: Inactivation of Kv channel in +30 mV-activated mouse N2A cells followed by further +30 mV pulse stimulation assessed as peak K+ current recovery at 30 uM; type: cell-based
[20] = Inhibition of Kv channel in depolarized mouse N2A cells assessed as inhibition of +30 mV-triggered steady state potassium current flow
N2a [21] = experiment: Steady state inactivation of Kv potassium channel in -70 mV-activated mouse N2A cells followed by further 10 mV pulse stimulation assessed as reduction in half maximal activation potential at 30 uM applied intracellularly (RVb= 10.8 +/- 2.4 mV); type: cell-based

Sequence of Potassium voltage-gated channel subfamily A member 2 (Homo sapiens) (P16389 whole entry): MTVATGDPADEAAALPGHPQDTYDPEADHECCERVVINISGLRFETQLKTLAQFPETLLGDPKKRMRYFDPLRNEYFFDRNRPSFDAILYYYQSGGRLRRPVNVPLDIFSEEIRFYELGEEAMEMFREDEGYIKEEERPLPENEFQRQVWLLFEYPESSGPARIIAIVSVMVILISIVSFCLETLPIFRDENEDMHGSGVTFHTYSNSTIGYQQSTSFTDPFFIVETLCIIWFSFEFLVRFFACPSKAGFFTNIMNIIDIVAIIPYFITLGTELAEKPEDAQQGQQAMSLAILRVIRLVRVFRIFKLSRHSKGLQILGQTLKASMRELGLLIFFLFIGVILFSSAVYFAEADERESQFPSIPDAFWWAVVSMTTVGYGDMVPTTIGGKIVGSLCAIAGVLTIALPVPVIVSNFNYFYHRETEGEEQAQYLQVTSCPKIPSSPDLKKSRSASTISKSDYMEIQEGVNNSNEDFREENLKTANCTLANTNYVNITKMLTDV

With `CC[C@H]1CN2CC[C@]3(C(=O)Nc4ccccc43)[C@@H]2C[C@@H]1/C(=C\OC)C(=O)OC` [RHYNCHOPHYLLINE] the Activity (N2a [1]) was -6.5 mV, the Activity (N2a [2]) was 11.8 and the Activity (N2a [3]) was “Active”. For the same compound, the Activity (N2a [4]) was 35 ms, the Activity (Mus musculus [5]) was “inactive” and the Activity (N2a [6]) was “Active”. For the same compound, the Activity (N2a [7]) was 93.3 ms, the Activity [8] was 19.4 and the Activity (N2a [9]) was 1900 ms. The Activity (N2a [10]) was “Active”, the Activity (N2a [11]) was 115% and the Activity (N2a [12]) was 23.2. For the same compound, the Activity (N2a [13]) was 60.8 ms, the Activity (N2a [14]) was 72.5% and the Activity (Mus musculus [15]) was “inactive”. It also gave an Activity (N2a [16]) of -34.6 mV, an Activity (N2a [17]) of 3.7 and an Activity (N2a [18]) of 98%. For the same compound, the Activity (N2a [19]) was “inactive”, the pIC50 [20] was 5.10 and the Activity (N2a [21]) was 7.7 mV.
